Reference: patent US20110028447A1, “INDAZOLE DERIVATIVES” (Pfizer Inc., priority 2008, published 2011)
Read-outs that look alike come from different tables or passages of the source.

Legend:
human CB1 receptor [1] = biological target: T1, human CB1 receptor (Homo sapiens, UniProt P21554); test: Human CB1 receptor binding, [3H] CP-55,940 displacement on HEK cell membranes; design: expressed in transfected cells; host or cells: HEK cells, doxycycline-induced; membrane preparation
Summary of the method: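 Membranes from doxycycline-induced HEK cells expressing human CB1 incubated 60 min at room temperature with [3H] CP-55,940 (final […]) in 50 mM Tris pH 7.4, 100 mM NaCl, 3 mM MgCl2, 0.2 mM EGTA, 0.04% BSA. Nonspecific binding defined with 50 μM WIN-55,212-2; filtration and scintillation counting gave EC50 and Ki.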

human CB1 receptor [2] = biological target: T1, human CB1 receptor; test: [35S] GTPγS binding on membranes of CHO cells expressing the human CB1 receptor (agonism); format: biochemical; design: expressed in transfected cells; membrane preparation
Protocol: Membrane preparation: CHO cells expressing the human CB1 receptor were grown to 80% confluence in Ham's F-12 Nutrient Medium (Invitrogen) containing 10% fetal bovine serum (Invitrogen), 1% pen/strep (Invitogen), 1% Nonessential amino acids (Invitrogen) and 500 μg/ml G418 (Invitrogen). Cells were released from flasks using Cell Dissociation Buffer (Invitrogen). Cells were pelleted by centrifugation at 500×G for 5 minutes. Membranes were prepared by resuspending cells in ice cold Assay Buffer (25 mM Tris pH 7.4, 5 mM EDTA, 5 mM EGTA, Complete Protease Inhibitor (Roche)). Cells were lysed with 12 strokes of a dounce homogenizer. Unlysed cells were pelleted by centrifugation at 500×G for 5 minutes. Membranes were pelleted by centrifugation at 25,000×G for 30 minutes. Membranes were resuspended in TEE, dounced 12 strokes, and pelleted a second time at 25,000×G for 30 minutes. Membrane pellet was resuspended in 50 mM Tris pH 7.4, 100 mM NaCl, 3 mM MgCl2, 0.2 mM EGTA, Complete Protease Inhibitor (Roche). Protein concentration was determined using the Micro-BCA Protein Assay Kit (Pierce) using BSA as a standard. Membranes were frozen and stored at −80 degrees Celsius until use.
GTPγS Binding: 40 μl of test compound was incubated with 20 μl of [^35S] GTPγS (Perkin Elmer) (1250 Ci/millimole) and 140 μl of membrane homogenate (5 μg/well) in polypropylene 96-well plates (Corning). Final reaction conditions were 50 mM Tris pH 7.4, 100 mM NaCl, 3 mM MgCl2, 0.2 mM EGTA, 0.04% BSA. After incubation at 37 degrees Celsius for 45 minutes reactions were harvested by vacuum filtration through Unifilter GF/B-96 filters (Perkin Elmer) using a FilterMate Plate Harvester (Perkin Elmer). Filters were rinsed 4 times with ice cold 50 mM Tris pH 7.4, 3 mM MgCl2, 0.2 mM EGTA and dried at 50 degrees Celsius for at least 30 minutes. 40 μl of Microscint-20 (Perkin Elmer) was added per well, and plates were counted using a Top-Count Microplate Scintillation Counter (Perkin Elmer). Binding data were analyzed and EC50 values were calculated using Graph Pad Prism 4.0 Software.

[3] = GTPγS EC50, human CB1, CHO cell membranes
[4] = human CB1, CHO cell membranes, read-out: GTPγS EC50

T1 sequence (P21554 whole entry): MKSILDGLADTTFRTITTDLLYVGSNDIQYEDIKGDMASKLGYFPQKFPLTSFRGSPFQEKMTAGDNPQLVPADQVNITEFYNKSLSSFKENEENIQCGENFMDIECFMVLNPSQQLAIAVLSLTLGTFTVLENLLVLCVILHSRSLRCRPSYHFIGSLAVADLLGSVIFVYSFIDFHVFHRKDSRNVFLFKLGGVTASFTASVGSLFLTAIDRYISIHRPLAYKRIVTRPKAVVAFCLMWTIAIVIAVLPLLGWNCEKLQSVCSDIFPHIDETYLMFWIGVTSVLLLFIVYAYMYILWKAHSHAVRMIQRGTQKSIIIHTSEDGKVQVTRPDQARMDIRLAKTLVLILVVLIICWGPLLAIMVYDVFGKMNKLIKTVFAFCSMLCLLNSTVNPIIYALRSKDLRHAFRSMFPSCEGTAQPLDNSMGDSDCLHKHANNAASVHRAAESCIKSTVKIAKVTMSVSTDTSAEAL

Structure (SMILES)	Ki (human CB1 receptor [1]; CB1 Ki) [nM]	EC50 (human CB1 receptor [2]; [3]) [nM]	Ki (human CB1 receptor [1]; read-out: CB1 Ki) [nM]	EC50 (human CB1 receptor [2]; [4]) [nM]
CC(C)(C)C(NC(=O)c1nn(Cc2ccc(F)cc2)c2c(Cl)cccc12)C(=O)NCC(N)=O (stereo not drawn) [Example 185]	0.51	10.2		
CC(C)(C)[C@H](NC(=O)c1nn(Cc2ccc(C#N)cc2)c2c(F)cccc12)c1nnc(N)o1 [Example 112]			0.51	31.8
CC(C)(C)[C@H](NC(=O)c1nn(Cc2ccc(C#N)cc2)c2c(F)cccc12)C(=O)NCC(N)=O [Example 110]	28.9	237		
Cc1cc2c(C(=O)N[C@H](C(=O)NCCO)C(C)(C)C)nn(Cc3ccc(F)cc3)c2cc1F [Example 511]	0.68	6.7		
CC(C)(C)[C@H](NC(=O)c1nn(Cc2ccc(F)cc2)c2c(F)c(F)ccc12)C(N)=O [Example 282]	0.17	0.78		
CC(C)(C)[C@H](NC(=O)c1nn(Cc2ccc(C#N)cc2)c2c(F)cccc12)C(=O)NC[C@H](O)CO [Example 113]	7.79	188		
COC(=O)[C@H](CO)NC(=O)[C@@H](NC(=O)c1nn(Cc2ccc(F)cc2)c2ccccc12)C(C)(C)C [Example 236]	0.94	3.91		
CC(C)(C)[C@H](NC(=O)c1nn(Cc2ccc(C#N)cc2)c2c(F)cccc12)C(=O)N[C@@H](CO)c1ccccc1 [Example 215]			7.69	41.3
CC(C)(C)C(NC(=O)c1nn(Cc2ccc(C#N)cc2F)c2ccccc12)C(=O)NCC(N)=O (stereo not drawn) [Example 92]	14.1	265		
CC(C)C(NC(=O)c1nn(Cc2cccc(F)c2)c2ccccc12)C(N)=O (stereo not drawn) [Example 20]	51.1	216		
CC(C)(C)C(NC(=O)c1nn(Cc2ccc(F)cc2)c2c(Cl)cccc12)C(=O)NC1CC1 (stereo not drawn) [Example 182]	0.34	2.23		
CC(C)(C)[C@H](NC(=O)c1nn(Cc2ccc(F)cc2)c2ccccc12)C(=O)N1CC(CNC(N)=O)C1 [Example 346]			5.14	12.1
CC(C)(C)[C@H](NC(=O)c1nn(Cc2ccc(F)cc2)c2ccccc12)C(=O)N[C@H](CO)C(N)=O [Example 246]	6.58	69		
CC(C)(C)[C@H](NC(=O)c1nn(Cc2ccc(F)cc2)c2ccccc12)C(=O)NC[C@H](O)[C@@H](O)CO [Example 517]	15.9	111		
COC(=O)[C@@H](CO)NC(=O)[C@@H](NC(=O)c1nn(Cc2ccc(F)cc2)c2ccccc12)C(C)(C)C [Example 234]	13.4	36.1		
CC(C)(C)[C@H](NC(=O)c1nn(Cc2ccc(F)cc2)c2c(F)cc(Cl)cc12)C(=O)NCCS(N)(=O)=O [Example 497]	16.7	59.5		
CC(C)(C)[C@H](NC(=O)c1nn(Cc2ccc(C#N)cc2)c2c(F)cccc12)C(=O)N[C@@H]1CCc2ccccc21 [Example 286]			5.74	36.1
CC(C)(C)[C@H](NC(=O)c1nn(Cc2ccc(F)cc2)c2ccccc12)C(=O)NCCS(=O)(=O)N1CCOCC1 [Example 357]			2.93	48.6
CC(C)(C)[C@H](NC(=O)c1nn(Cc2ccc(F)cc2)c2ccccc12)C(=O)NCCc1nc2ccccc2c(=O)[nH]1 [Example 501]			24.2	16.8
CC(C)(C)[C@H](NC(=O)c1nn(Cc2ccc(F)cc2)c2ccccc12)C(=O)NCC1CCC(=O)N1 (stereo partly drawn) [Example 404]	13.1	38.2		
CC(C)(C)C(NC(=O)c1nn(Cc2ccc(F)cc2)c2c(Cl)cccc12)C(=O)NCCO (stereo not drawn) [Example 183]	0.26	0.83		
CC(C)(C)[C@H](NC(=O)c1nn(Cc2ccc(F)cc2)c2ccccc12)C(=O)N1CCC(C(N)=O)CC1 [Example 225]			6.3	26.9

Structure (SMILES)	Ki (human CB1 receptor [1]; CB1 Ki) [nM]	EC50 (human CB1 receptor [2]; [3]) [nM]	Ki (human CB1 receptor [1]; read-out: CB1 Ki) [nM]	EC50 (human CB1 receptor [2]; [4]) [nM]
CC(C)(C)[C@H](NC(=O)c1nn(Cc2ccc(F)cc2)c2ccccc12)C(=O)N1CCC[C@H]1CO [Example 306]	0.78	1.39		
CC(C)(C)C(NC(=O)c1nn(Cc2ccc(F)cc2)c2ccccc12)C(=O)NC1CC1 (stereo not drawn) [Example 80]	0.21	1.82		
CC(C)(C)C(NC(=O)c1nn(Cc2ccc(F)cc2)c2c(F)cccc12)C(N)=O (stereo not drawn) [Example 175]	0.19	0.64		
CC(C)(C)[C@H](NC(=O)c1nn(Cc2ccc(F)cc2)c2ccccc12)C(N)=O [Example 1, N-[(1S)-1-(Aminocarbonyl)-2,2-dimethylpropyl]-1-(4-fluorobenzyl)-1H-indazole-3-carboxamide]	0.36	0.98		
COc1cc(C#N)ccc1Cn1nc(C(=O)N[C@H](C(=O)NC[C@H](O)CO)C(C)(C)C)c2ccccc21 [Example 387]	> 400			
CC(C)(C)[C@H](NC(=O)c1nn(Cc2ccc(F)cc2)c2ccccc12)C(=O)NC[C@@H](O)C(N)=O [Example 314]	130			
CC(C)(C)[C@H](NC(=O)c1nn(Cc2ccc(F)cc2)c2ccc(Cl)cc12)C(=O)NCCC(N)=O [Example 477]	28.3			
CC(C)(C)[C@H](NC(=O)c1nn(Cc2ccc(C#N)cc2)c2ccc(Cl)cc12)C(N)=O [Example 440]	104			
CC(C)(C)[C@H](NC(=O)c1nn(Cc2ccc(F)cc2)c2ccccc12)C(=O)NCC(=O)NCCCO [Example 521]			> 400	
CC(C)(C)[C@H](NC(=O)c1nn(Cc2ccc(F)cc2)c2ccc(Cl)cc12)C(=O)NCCO [Example 428]	0.89			
CC(C)(C)[C@H](NC(=O)c1nn(Cc2ccc(F)cc2)c2ccccc12)C(=O)N[C@H](CC(N)=O)C(N)=O [Example 290]			92	
CC(C)(C)[C@H](NC(=O)c1nn(Cc2ccc(F)cc2)c2ccccc12)C(=O)N1CCC[C@H]1C(=O)NCCO [Example 293]			> 400	
Cn1ccc(NC(=O)[C@@H](NC(=O)c2nn(Cc3ccc(F)cc3)c3ccccc23)C(C)(C)C)n1 [Example 515]	37.5			
Cc1cc(Cn2nc(C(=O)N[C@H](C(N)=O)C(C)(C)C)c3ccccc32)no1 [Example 5, N-[(1S)-1-(aminocarbonyl)-2,2-dimethylpropyl]-1-[(5-methylisoxazol-3-yl)methyl]-1H-indazole-3-carboxamide]	954			
CC(C)(C)[C@H](NC(=O)c1nn(Cc2ccc(C#N)cc2)c2c(F)cccc12)C(=O)N[C@H](CO)c1ccccc1 [Example 216]			225	
COc1cccc(C2(NC(=O)[C@@H](NC(=O)c3nn(Cc4ccc(C#N)cc4)c4c(F)cccc34)C(C)(C)C)CC2)c1 [Example 212]			52.1	
CC(C)(C)[C@H](NC(=O)c1nn(Cc2ccc(F)cc2)c2ccccc12)C(=O)NCC(=O)N1C[C@@H](O)[C@H](O)C1 [Example 378]			158	
CC(C)(C)[C@H](NC(=O)c1nn(Cc2ccc(F)cc2)c2ccccc12)C(=O)NCC(=N)N [Example 291]	1.2			
CC(C)(C)[C@H](NC(=O)c1nn(Cc2ccc(C(F)(F)F)cc2)c2ccccc12)C(=O)NCC(N)=O [Example 259]	132			
CCOC(=O)C1(F)CCN(C(=O)[C@@H](NC(=O)c2nn(Cc3ccc(F)cc3)c3ccccc23)C(C)(C)C)CC1 [Example 342]			20.5	
CC(C)(C)[C@H](NC(=O)c1nn(Cc2ccc(C#N)cc2)c2cc(F)ccc12)C(=O)NCC1CCC(=O)N1 (stereo partly drawn) [Example 403]	> 400			
